In ChEMBL document CHEMBL1129576, “Nucleosides and nucleotides. 158. 1-(3-C-ethynyl-beta-D-ribo-pentofuranosyl)-cytosine, 1-(3-C-ethynyl-beta-D-ribo-pentofuranosyl)uracil, and their nucleobase analogues as new potential multifunctional antitumor nucleosides with a broad spectrum of activity” (J Med Chem, 1996):

Key:
QG-96 = assay: In vitro tumor cell growth inhibitory activity against Human lung small-cell carcinoma cellb) QG-96; assay type: functional, cell-based
PC-8 = assay: In vitro tumor cell growth inhibitory activity against Human lung (adenocarcinoma) cell lines. PC-8; assay type: functional, cell-based
[1] = In vitro tumor cell growth inhibitory activity against Human lung squamous-cell carcinoma cell lines QG-95; assay type: functional
Mus musculus [2] = assay: In vivo inhibitory activity against PAN-12 tumor xenograft of pancreas in nude mice at a concentration of 0.25 mg/kg for 10 days; assay type: functional
Mus musculus [3] = assay: In vivo inhibitory activity against JRC-11 cells tumor xenograft of renal in nude mice at a concentration of 0.25 mg/kg for 10 days; assay type: functional
PANC-1 = assay: In vitro tumor cell growth inhibitory activity against Human pancreas (adenocarcinoma) cell lines. PANC-1; assay type: functional, cell-based
PC10 = assay: In vitro tumor cell growth inhibitory activity against Human lung (adenocarcinoma) cell lines PC-10; assay type: functional, cell-based
ST-KM-1 = assay: In vitro tumor cell growth inhibitory activity against Human stomach (adenocarcinoma) cell linesST-KM; assay type: functional, cell-based
YMB-1-E = assay: In vitro tumor cell growth inhibitory activity against Human breast (adenocarcinoma) cell lines YMB-1-E.; assay type: functional, cell-based
Mus musculus [4] = assay: In vivo tumor cell growth inhibitory activity against CO-3 tumor xenograft of colon in nude mice at a concentration of 0.25 mg/kg for 10 days; assay type: functional
MDA-MB-231 = assay: In vitro tumor cell growth inhibitory activity against Human breast (adenocarcinoma) cell lines. […]; assay type: functional, cell-based
MCF7 = assay: In vitro tumor cell growth inhibitory activity against Human breast (adenocarcinoma) cell lines. MCF-7; assay type: functional, cell-based
A-431 = assay: In vitro tumor cell growth inhibitory activity against Human […] A431 cell lines; assay type: functional, cell-based
COLO 320DM = assay: In vitro tumor cell growth inhibitory activity against i Human colon (adenocarcinoma) cell lines. COLO 320DM; assay type: functional, cell-based
HT-1080 = assay: In vitro tumor cell growth inhibitory activity against Human fibrosarcoma HT1080 cell lines.; assay type: functional, cell-based
MKN-45 (Homo sapiens) = assay: In vitro tumor cell growth inhibitory activity against Human stomach (adenocarcinoma) cell lines. MKN-45
NCI-H417 = assay: In vitro tumor cell growth inhibitory activity against Human lung small-cell carcinoma cell NCI-H-417; assay type: functional, cell-based
Mus musculus [5] = assay: In vivo tumor cell growth inhibitory activity of CO-3 tumor xenograft of […] in nude mice at a concentration of 0.25 mg/kg for 10 days; assay type: functional
SW480 = assay: In vitro tumor cell growth inhibitory activity against i Human colon (adenocarcinoma) cell lines. SW-480; assay type: functional, cell-based
[6] = In vitro tumor cell growth inhibitory activity against Human stomach (adenocarcinoma) cell lines STSA-1
QG-56 = assay: In vitro tumor cell growth inhibitory activity against Human lung squamous-cell carcinoma cell linesQG-56; assay type: functional, cell-based
NAKAJIMA = assay: In vitro tumor cell growth inhibitory activity against Human stomach (adenocarcinoma) cell lines. h) NAKAJIMA; assay type: functional, cell-based
NUGC-4 = assay: In vitro tumor cell growth inhibitory activity of Human stomach (adenocarcinoma) cell lines. NUGC-4; assay type: functional, cell-based
Mus musculus [7] = assay: In vivo tumor cell growth inhibitory activity against NUGC-3 tumor xenograft of stomach in nude mice at a concentration of 0.25 mg/kg for 10 days; assay type: functional
QG-90 = assay: In vitro tumor cell growth inhibitory activity against Human lung small-cell carcinoma cell lines. QG-90; assay type: functional, cell-based
L1210 = assay: In vitro tumor cell growth inhibitory activity against mouse leukemia L1210 cell lines.; assay type: functional, cell-based
[8] = system: KATO III stomach cancer cell line; assay: In vitro tumor cell growth inhibitory activity of Human stomach (adenocarcinoma) cell lines. KATO-III; assay type: functional, cell-based
fLS = assay: In vitro tumor cell growth inhibitory activity of Human stomach (adenocarcinoma) cell lines. fLS; assay type: functional, cell-based
A-375 = assay: In vitro tumor cell growth inhibitory activity against Human melanoma cell lines A375; assay type: functional, cell-based
NCI-H82 (Homo sapiens) = assay: In vitro tumor cell growth inhibitory activity against Human lung small-cell carcinoma cellc) NCI-H-82
Lu-65 = assay: In vitro tumor cell growth inhibitory activity against Human lung large-cell carcinoma Lu-65 cell lines.; assay type: functional, cell-based
MG-63 = assay: In vitro tumor cell growth inhibitory activity against Human osteosarcoma cell lines MG-63.; assay type: functional, cell-based
Mus musculus [9] = assay: In vivo tumor cell growth inhibitory activity against KM12C tumor xenograft of […] in nude mice at a concentration of 0.25 mg/kg for 10 days; assay type: functional
KB = assay: In vitro tumor cell growth inhibitory activity against human nasopharyngeal KB cell lines; assay type: functional, cell-based
Mus musculus [10] = assay: In vivo tumor cell growth inhibitory activity of H-81 tumor xenograft of stomach in nude mice at a concentration of 0.25 mg/kg for 10 days; assay type: functional
T-24 = assay: In vitro tumor cell growth inhibitory activity against Human bladder carcinoma cell lines. T24; assay type: functional, cell-based
MKN-28 = assay: In vitro tumor cell growth inhibitory activity against Human stomach (adenocarcinoma) cell lines. MKN-28; assay type: functional, cell-based
PC-9 = assay: In vitro tumor cell growth inhibitory activity against Human lung (adenocarcinoma) cell lines PC-9; assay type: functional, cell-based
HOS = assay: In vitro tumor cell growth inhibitory activity against Human osteosarcoma cell lines. HOS; assay type: functional, cell-based
Mus musculus [11] = assay: In vivo inhibitory activity against H-31 cells tumor xenograft of breast in nude mice at a concentration of 0.25 mg/kg for 10 days; assay type: functional
Mus musculus [12] = assay: In vivo inhibitory activity against DLD-1 tumor xenograft of colon in nude mice at a concentration of 0.25 mg/kg for 10 days; assay type: functional
HCT-15 = assay: In vitro tumor cell growth inhibitory activity against HCT-15; assay type: functional, cell-based; conditions: Homo sapiens
[13] = system: MIA PaCa-2 (Homo sapiens); assay: In vitro tumor cell growth inhibitory activity against Human pancreas (adenocarcinoma) cell Mia-PaCa-2
Mus musculus [14] = assay: In vivo inhibitory activity against Hucc-T1 cells tumor xenograft of bile duct in nude mice at a concentration of 0.25 mg/kg for 10 days; assay type: functional
KK-47 cell line = assay: In vitro tumor cell growth inhibitory activity against Human bladder carcinoma cell lines. kK-47; assay type: functional, cell-based
SW48 = assay: In vitro tumor cell growth inhibitory activity against i Human colon (adenocarcinoma) cell lines. SW-48; assay type: functional, cell-based
Mus musculus [15] = assay: In vivo tumor cell growth inhibitory activity against Hucc-T1 cells tumor xenograft of bile duct in nude mice at a concentration of 15 mg/kg for 15 days; assay type: functional
Mus musculus [16] = assay: In vivo tumor cell growth inhibitory activity against H-31 cells tumor xenograft of breast in nude mice at a concentration of 15 mg/kg for 15 days; assay type: functional
Mus musculus [17] = assay: In vivo tumor cell growth inhibitory activity of CO-3 tumor xenograft of […] in nude mice at a concentration of 15 mg/kg for 15 days; assay type: functional
Mus musculus [18] = assay: In vivo inhibitory activity against BxPC-3 tumor xenograft of pancreas in nude mice at a concentration of 15 mg/kg for 15 days; assay type: functional
Mus musculus [19] = assay: In vivo tumor cell growth inhibitory activity against JRC-11 cells tumor xenograft of renal in nude mice at a concentration of 15 mg/kg for 15 days; assay type: functional
Mus musculus [20] = assay: In vivo tumor cell growth inhibitory activity of H-81 tumor xenograft of stomach in nude mice at a concentration of 15 mg/kg for 15 days; assay type: functional
Mus musculus [21] = assay: In vivo inhibitory activity against PAN-12 tumor xenograft of pancreas in nude mice at a concentration of 15 mg/kg for 15 days; assay type: functional
Mus musculus [22] = assay: In vivo tumor cell growth inhibitory activity against KM12C tumor xenograft of […] in nude mice at a concentration of 15 mg/kg for 15 days; assay type: functional
Mus musculus [23] = assay: In vivo tumor cell growth inhibitory activity against DLD-1 tumor xenograft of […] in nude mice at a concentration of 15 mg/kg for 15 days; assay type: functional
Mus musculus [24] = assay: In vivo tumor cell growth inhibitory activity against AZ-521 tumor xenograft of stomach in nude mice at a concentration of 15 mg/kg for 15 days; assay type: functional

C#C[C@]1(O)[C@@H](CO)O[C@@H](n2ccc(N)nc2=O)[C@@H]1O
IC50 (QG-96): 390 nM
IC50 (PC-8): 90 nM
IC50 [1]: 210 nM
Inhibition ratio (Mus musculus [2]): 75%
Inhibition ratio (Mus musculus [3]): 73%
IC50 (PANC-1): > 1900 nM
IC50 (PC10): 160 nM
IC50 (ST-KM-1): 47 nM
IC50 (YMB-1-E): 160 nM
Inhibition ratio (Mus musculus [4]): 88%
IC50 (MDA-MB-231): 24 nM
IC50 (MCF7): 69 nM
IC50 (A-431): 33 nM
IC50 (COLO 320DM): 20 nM
IC50 (HT-1080): 73 nM
IC50 (MKN-45 (Homo sapiens)): 8.8 nM
IC50 (NCI-H417): 43 nM
Inhibition ratio (Mus musculus [5]): 80%
IC50 (SW480): 260 nM
IC50 [6]: 150 nM
IC50 (QG-56): 45 nM
IC50 (NAKAJIMA): 170 nM
IC50 (NUGC-4): 24 nM
Inhibition ratio (Mus musculus [7]): 84%
IC50 (QG-90): 130 nM
IC50 (L1210): 16 nM
IC50 [8]: 31 nM
IC50 (fLS): 21 nM
IC50 (A-375): 26 nM
IC50 (NCI-H82 (Homo sapiens)): 120 nM
IC50 (Lu-65): 32 nM
IC50 (MG-63): 150 nM
Inhibition ratio (Mus musculus [9]): 83%
IC50 (KB): 28 nM
Inhibition ratio (Mus musculus [10]): 92%
IC50 (T-24): 28 nM
IC50 (MKN-28): 210 nM
IC50 (PC-9): 110 nM
IC50 (HOS): 1000 nM
Inhibition ratio (Mus musculus [11]): 76%
Inhibition ratio (Mus musculus [12]): 78%
IC50 (HCT-15): 8.2 nM
IC50 [13]: 15 nM
Inhibition ratio (Mus musculus [14]): 55%
IC50 (KK-47 cell line): 120 nM
IC50 (SW48): > 1900 nM

O=c1[nH]cc(F)c(=O)[nH]1 [FLUOROURACIL]
Inhibition ratio (Mus musculus [15]): 1%
Inhibition ratio (Mus musculus [16]): 68%
Inhibition ratio (Mus musculus [17]): 49%
Inhibition ratio (Mus musculus [18]): 50%
Inhibition ratio (Mus musculus [19]): 69%
Inhibition ratio (Mus musculus [20]): 83%
Inhibition ratio (Mus musculus [21]): 40%
Inhibition ratio (Mus musculus [22]): 59%
Inhibition ratio (Mus musculus [23]): 50%
Inhibition ratio (Mus musculus [24]): 25%
